What is called IC50 is the point on the concentration scale where inhibition reaches its midpoint.

We go through 5 compounds from patent US11655252B2, “Aminopyrimidinyl derivatives” (Pfizer Inc., priority 2020, dated 2023).

A value given as a limit tells only on which side of the number the result lay.

One data set has as its target JAK1 (Homo sapiens (Human), UniProt P23458). The data set is described as follows: JAK Family Caliper Enzyme Assay (JAK1). The following applies: recombinant human kinase domain, 1 mM ATP. It is filed as biochemical. The procedure:
(§1) JAK Family Caliper Enzyme Assay
(§2) Compounds of the invention were evaluated by in vitro methods to determine their respective ability to inhibit the JAK kinases (TYK2, JAK1, JAK2, JAK3). Inhibitory activity was determined by using a microfluidic assay (LabChip 3000™ mobility shift technology, Caliper Life Science) to monitor phosphorylation of a synthetic peptide by the recombinant human kinase domain of each of the four members of the JAK family, JAK1, JAK2, JAK3 and TYK2. Reaction mixtures contained 1 μM of a fluorescently labeled synthetic peptide, a concentration less than the apparent Km, and 1 mM ATP.
(§3) Compounds in DMSO solution were added to a 384-well plate. Reaction mixtures contained 10 mM HEPES, pH 7.4, 10 mM MgCl2, 0.01% BSA, 0.0005% Tween 20™, 1 mM ATP and 1 μM peptide substrate. The JAK1 and TYK2 assays contained 1 μM of the IRStide peptide (5FAM-KKSRGDYMTMQID) and the JAK2 and JAK3 assays contained 1 μM of the JAKtide peptide (FITC-KGGEEEEYFELVKK). The assays were initiated by the addition of 20 nM JAK1, 1 nM JAK2, 1 nM JAK or 1 nM TYK2 enzyme and were incubated at room temperature for three hours for JAK1, 60 minutes for JAK2, 75 minutes for JAK3 or 135 minutes for TYK2. Enzyme concentrations and incubation times were optimized for each new enzyme preps and were modified slightly over time to ensure 20% to 30% phosphorylation. The assays were stopped with 15 μL of 180 mM HEPES, pH 7.4, 20 mM EDTA, and 0.2% Coating Reagent 3. The assay plates were placed on a Caliper Life Science LC3000 instrument, and each well was sampled using appropriate separation conditions to measure the unphosphorylated and phosphorylated peptide.
(§4) The data was collected using the HTS Well Analyzer software from Caliper Life Sciences. The data output for data analysis is the percent product converted calculated on peak height (Equation 1). % product converted=100*((product)/(product+substrate)) Equation 1: […]
(§5) The percent effect at each compound concentration was calculated based on the positive and negative control well contained within each assay plate (Equation 2). […] The negative control wells contained DMSO alone (at the same concentration as the compound wells) that was used to set the baseline activity in the assay (i.e., uninhibited JAK1, JAK2, JAK3 or TYK2). % effect=100*((sample well−negative control)/(positive control−negative control)) Equation 2: […]
(§6) The percent effect was plotted against the compound concentration compound. An unconstrained sigmoid curve was fitted using a 4 parameter logistic model and the compound concentration required for 50% inhibition (IC50) was determined (Equation 3). y=((max−min)/(1+((x/IC50)^s)))+min Equation 3: […]

In the next data set the target is JAK2 (Homo sapiens (Human), UniProt O60674). The data set is described as follows: JAK Family Caliper Enzyme Assay (JAK2). It is filed as biochemical. The following applies: recombinant human kinase domain, 1 mM ATP. The procedure:
as §1, §2, §3, §4, §5, §6

Data set [1] can be described thus: In Vitro Human Hepatocyte Clearance Assay. It is filed as in vitro ADME. The following applies: cryopreserved human hepatocytes in suspension, 0.5 million cells/mL, 1 μM test compound, read-out: HHEP CLint, app (μL/min/million cells). Here is the method:
In Vitro Human Hepatocyte Clearance Assay A high-throughput human hepatocyte substrate-depletion assay was performed in a 384-well formatted as described previously [Di et al., Eur. J. Med. Chem., 2012, 57, 441]. Briefly, the cryopreserved human hepatocytes were thawed and resuspended in Williams' E medium supplemented with HEPES and Na2CO3. The cells were counted using the trypan blue exclusion method. Test compounds were added to suspended human hepatocytes in Williams' E medium buffer and incubated at 37° C. in a humidified CO2 incubator (75% relative humidity, 5% CO2/air) for 4 hours. The final incubation contained 0.5 million cells/mL and 1 μM test compound in 15 μL total volume with 0.1% DMSO. At various time points (0, 3, 10, 30, 60, 120, and 240 minutes), an aliquot of the sample was taken and quenched with cold acetonitrile containing internal standard. The samples were centrifuged at 3000 rpm for 10 minutes at 4° C., and the supernatants were transferred to new plates, which were sealed before performing LC-MS/MS analysis. The apparent metabolic intrinsic clearance (CLint, met, app) was determined based on the substrate-depletion half-life estimated from the ratio of the peak area response of each compound to that of the internal standard, as described earlier [Di et al., Eur. J. Med. Chem., 2012, 57, 441].

The target in the next data set is TYK2 (Homo sapiens (Human), UniProt P29597). As to the kind of experiment: JAK Family Caliper Enzyme Assay (TYK2). It is filed as biochemical. The following applies: recombinant human kinase domain, 1 mM ATP. Here is the method: as §1, §2, §3, §4, §5, §6
In a further data set the target is JAK3 (Homo sapiens (Human), UniProt P52333). The data set is described as follows: JAK Family Caliper Enzyme Assay (JAK3). It counts as biochemical. The following applies: recombinant human kinase domain, 1 mM ATP. The procedure:
as §1, §2, §3, §4
The percent effect at each compound concentration was calculated based on the positive and negative control well contained within each assay plate (Equation 2). […]

The subject of data set [2] is CXCL10 biomarker in Th2 stimulated ex vivo human skin. As to the kind of experiment: Biomarker Modulation in Th2 Stimulated Ex Vivo Human Skin Assay. It counts as cell-based. The following applies: 1% w/w formulation applied topically, qPCR. The procedure:
Biomarker Modulation in Th2 Stimulated Ex Vivo Human Skin Assay Compounds of this invention were assessed for their ability to modulate CXCL10 biomarker in Th2 stimulated ex vivo human skin following topical application. […] Freshly excised human skin from surgery specimens was cut with a dermatome to 750 μm thickness and mounted in a 7 mm static Franz cell for tissue culture such that the upper surface of the skin was exposed to air in the Franz cell donor chamber, and the bottom (dermis) was exposed to Cornification medium. A total of two skin donors were used (n=6 per treatment per donor). Incubations were carried out in a standard tissue culture incubator. Compound was dissolved in the indicated formulation at a concentration of 1% w/w and added apically to the skin at 10 μL per sample (approximately 18 μL per cm^2) at 4-6 replicates per donor. After 16 h media was replaced with stimulation cocktail containing anti-CD3 mAb, anti-CD28 mAb, IL-2, IL-4, IL-33 and TSLP. Incubation was continued for additional 24 hr at 37° C. Then skin was harvested, treated with RNALater solution and processed for RNA extraction and qPCR that was run in duplicates. MMP12, CCL26, CXCL10 and Filaggrin may be measured. Results for each sample were normalized to its own GAPDH internal standard which was not appreciably affected by stimulus or compound. Fold change was normalized to untreated sample.
On the technique in general: Quantitative PCR measures a nucleic acid by following its amplification.

The test system of data set [3] is interferon alpha signalling (TYK2 and JAK1), pSTAT3 in human whole blood lymphocytes. As to the kind of experiment: HWB INF Alpha Induced STAT3 Phosphorylation Assay. The following applies: Lymphocyte, IFN alpha 5000 U/ml, flow cytometry. It counts as cell-based. Here is the method: HWB INF Alpha Induced STAT3 Phosphorylation Assay
Compounds of this invention were assessed for their ability to inhibit interferon alpha signalling in a human whole blood flow cytometry assay. Interferon alpha signals through TYK2 and JAK1. Test articles were prepared as 30 mM stocks in 100% DMSO, and then diluted to 10 mM. An 11-point 3 dilution series was created in DMSO with a top concentration of […]. Further dilution was done by adding 4 μL of the above test article solutions into 96 μL of PBS with a top concentration of 400 μM. Human whole blood (HWB) was collected from healthy donors via vein puncture into Vacutainer™ collection tubes containing sodium heparin (Catalog No. 366480, Becton Dickinson, Franklin Lakes, N.J.). Blood was warmed to 37° C. prior to use. […]
Samples were transferred to 96-well U bottom plates (Falcon #353077) and flow cytometric analysis was performed on an LSRFortessa equipped with a HTS plate loader (BD Biosciences). […] Background fluorescence was defined using unstimulated cells and a gate was placed at the foot of the peak to include ˜0.5% gated population. […] Relative fluorescence unit (RFU), which measures the level of phospho STAT, was calculated by multiplying the percent positive population and its mean fluorescence. […] Inhibition curves and IC50 values were determined using the Prism version 7 software (GraphPad, La Jolla, Calif.).
For orientation: In flow cytometry, cells or beads pass a laser one at a time.

JAK2, sequence (O60674 849-1124): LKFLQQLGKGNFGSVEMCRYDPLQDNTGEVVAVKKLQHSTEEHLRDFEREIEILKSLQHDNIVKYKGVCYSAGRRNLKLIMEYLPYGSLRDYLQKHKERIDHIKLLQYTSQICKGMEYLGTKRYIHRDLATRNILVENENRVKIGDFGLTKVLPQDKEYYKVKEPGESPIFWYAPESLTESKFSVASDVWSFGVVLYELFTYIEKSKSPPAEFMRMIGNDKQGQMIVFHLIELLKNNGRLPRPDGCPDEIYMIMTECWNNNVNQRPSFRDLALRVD
TYK2, sequence (P29597 897-1176): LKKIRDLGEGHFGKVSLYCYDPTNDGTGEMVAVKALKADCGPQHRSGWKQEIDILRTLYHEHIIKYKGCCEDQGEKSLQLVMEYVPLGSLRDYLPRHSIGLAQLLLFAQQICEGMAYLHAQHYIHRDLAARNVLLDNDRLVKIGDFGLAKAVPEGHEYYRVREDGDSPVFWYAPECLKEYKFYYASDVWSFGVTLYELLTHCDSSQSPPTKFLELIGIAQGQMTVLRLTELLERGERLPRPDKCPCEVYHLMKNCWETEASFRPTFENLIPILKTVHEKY
JAK1, sequence (P23458 875-1153): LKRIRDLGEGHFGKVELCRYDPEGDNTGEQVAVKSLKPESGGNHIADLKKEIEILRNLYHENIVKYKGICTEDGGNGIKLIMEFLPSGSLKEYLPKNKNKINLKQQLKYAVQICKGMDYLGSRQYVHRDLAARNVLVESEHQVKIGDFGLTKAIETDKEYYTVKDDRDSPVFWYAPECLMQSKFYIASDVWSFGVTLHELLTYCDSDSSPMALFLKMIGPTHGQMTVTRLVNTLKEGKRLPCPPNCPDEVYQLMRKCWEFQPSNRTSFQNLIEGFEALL
JAK3, sequence (P52333 822-1111): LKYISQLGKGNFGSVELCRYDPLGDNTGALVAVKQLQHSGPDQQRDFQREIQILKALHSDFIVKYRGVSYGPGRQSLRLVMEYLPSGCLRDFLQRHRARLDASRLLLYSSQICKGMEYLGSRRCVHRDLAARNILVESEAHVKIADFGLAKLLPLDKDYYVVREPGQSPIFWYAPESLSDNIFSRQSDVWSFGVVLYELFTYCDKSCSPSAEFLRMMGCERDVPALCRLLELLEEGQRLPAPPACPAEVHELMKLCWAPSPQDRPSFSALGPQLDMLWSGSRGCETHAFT

For `CCCn1cc(Nc2nccc(N3C[C@H]4CC[C@@H](C3)N4C(=O)[C@@H]3CC3(F)F)n2)cn1` [IA, ((S)-2,2-Difluorocyclopropyl)((1R,5S)-3-(2-((1-propyl-1H-pyrazol-4-yl)amino)pyrimidin-4-yl)-3,8-diazabicyclo[3.2.1]octan-8-yl)methanone], the half-inhibitory concentration (IC50) is 33 nM on JAK1; 80 nM on JAK2; 37 nM at TYK2; above 9580 nM on JAK3; 66 nM in data set [3]. The hepatocyte CLint at 1 μM in data set [1] amounted to 8.6 µL/min/1e6 cells. In addition, the “% inhibition CXCL10” value in data set [2] was found to be 94.2%.
In the case of `C[C@@H](O)Cn1cc(Nc2nccc(N3C[C@H]4CC[C@@H](C3)N4C(=O)[C@@H]3CC3(F)F)n2)cn1` [IB, ((S)-2,2-Difluorocyclopropyl)((1R,5S)-3-(2-((1-((R)-2-hydroxypropyl)-1H-pyrazol-4-yl)amino)pyrimidin-4-yl)-3,8-diazabicyclo[3.2.1]octan-8-yl)methanone], the IC50 on JAK1 was 59 nM; on JAK2 it was 223 nM; on TYK2, 82 nM; at JAK3, above 10000 nM.
With `C[C@H](O)Cn1cc(Nc2nccc(N3C[C@H]4CC[C@@H](C3)N4C(=O)[C@@H]3CC3(F)F)n2)cn1` [IC, ((S)-2,2-Difluorocyclopropyl)((1R,5S)-3-(2-((1-((S)-2-hydroxypropyl)-1H-pyrazol-4-yl)amino)pyrimidin-4-yl)-3,8-diazabicyclo[3.2.1]octan-8-yl)methanone], the 50% inhibitory concentration (IC50) at JAK1 came out at 44 nM; on JAK2, 139 nM; at TYK2, 65 nM.
With `O=C([C@@H]1CC1(F)F)N1[C@@H]2CC[C@H]1CN(c1ccnc(Nc3cnn(CCCO)c3)n1)C2` [ID], the IC50 on JAK1 is 47 nM; at JAK2 it was 81 nM; on TYK2, 30 nM; at JAK3, above 9280 nM.
As for `Cn1cc(Nc2nccc(N3C[C@H]4CC[C@@H](C3)N4C(=O)[C@@H]3CC3(F)F)n2)cn1` [II, ((S)-2,2-difluorocyclopropyl)-((1R,5S)-3-(2-((1-methyl-1H-pyrazol-4-yl)amino)pyrimidin-4-yl)-3,8-diazabicyclo[3.2.1]octan-8-yl)methanone, reference compound], the hepatocyte CLint at 1 μM in data set [1] is below 0.6 µL/min/1e6 cells. In data set [2], the “% inhibition CXCL10” value is 72.4%.
